ChEMBL document CHEMBL1148802, “Discovery and synthesis of HIV integrase inhibitors: development of potent and orally bioavailable N-methyl pyrimidones” (J Med Chem, 2007)
Values belong to the molecule of their own block, whether it stands above or below them.

Experiments:
[1] = Plasma clearance in Sprague-Dawley rat; format: ADME, organism-based
[2] = Oral bioavailability in Sprague-Dawley rat; format: ADME, organism-based; conditions: in vivo
[3] = target: Human immunodeficiency virus type 1 integrase (Human immunodeficiency virus 1, UniProt Q7ZJM1); assay: Inhibition of HIV integrase activity by HIV strand transfer assay
[4] = tested on: Human immunodeficiency virus 1; assay: Antiviral activity against HIV13b in MT4 cells assessed as decrease in HIV1 p24 core antigen in presence of fetal bovine serum; format: functional, 3b; conditions: for IC95: Human immunodeficiency virus 1, 3b, MT4, read-out: CIC95
[5] = Plasma half life in iv dosed Sprague-Dawley rat; format: ADME, organism-based
Homo sapiens = species: Homo sapiens; assay: Protein binding in human plasma; conditions: read-out: PPB (converted)
[6] = tested on: Human immunodeficiency virus 1; assay: Antiviral activity against HIV1 3b in MT4 cells assessed as decrease in […] p24 core antigen in presence of normal human serum; format: functional; conditions: for IC95: Human immunodeficiency virus 1, 3b, MT4, read-out: CIC95
[7] = (§1) AUC in Sprague-Dawley rat at 3 mg/kg, po; format: ADME, organism-based, Plasma; design: dose 3 mg/kg, route oral; conditions: Sprague-Dawley, plasma
[8] = Protein binding in Sprague-Dawley rat plasma; format: ADME, cell-free; conditions: read-out: PPB (converted)
[9] = Distribution coefficient, log D of the compound; format: physicochemical; conditions: octanol/water
[10] = AUC in Sprague-Dawley rat at 2.4 mg/kg, po; format: ADME, organism-based; design: dose 2.4 mg/kg, route oral; conditions: plasma
[11] = AUC in Sprague-Dawley rat at 2.3 mg/kg, po; format: ADME, organism-based; design: dose 2.3 mg/kg, route oral; conditions: plasma
[12] = AUC in Beagle dog at 1 mg/kg, po; format: ADME, organism-based, Canis lupus familiaris; design: dose 1 mg/kg, route oral; conditions: plasma
[13] = Plasma clearance in Beagle dog; format: ADME, organism-based, Canis lupus familiaris
[14] = Protein binding in Beagle dog plasma; format: ADME, organism-based, Canis lupus familiaris; conditions: read-out: PPB (converted)
[15] = Oral bioavailability in Beagle dog; format: ADME, organism-based, Canis lupus familiaris; conditions: in vivo
[16] = Plasma half life in iv dosed Beagle dog; format: ADME, organism-based, Canis lupus familiaris
[17] = AUC in Beagle dog at 2 mg/kg, po; format: ADME, organism-based, Canis lupus familiaris; design: dose 2 mg/kg, route oral; conditions: plasma
Rattus norvegicus = assay: as §1; format: ADME, organism-based, Plasma; design: dose 3 mg/kg, route oral; conditions: in vivo
[18] = AUC in Beagle dog at 1.5 mg/kg, po; format: ADME, organism-based, Canis lupus familiaris; design: dose 1.5 mg/kg, route oral; conditions: plasma
[19] = AUC in Beagle dog at 0.8 mg/kg, po; format: ADME, organism-based, Canis lupus familiaris; design: dose 0.8 mg/kg, route oral; conditions: plasma
[20] = AUC in rhesus monkey at 1 mg/kg, po; format: ADME, organism-based, Macaca mulatta; design: dose 1 mg/kg, route oral; conditions: plasma
[21] = Solubility at pH 7.4; format: physicochemical; conditions: buffer
[22] = Plasma clearance in rhesus monkey at 1 mg/kg, po and 1 mg/kg, iv; format: ADME, organism-based, Macaca mulatta
Cytochrome P450 3A4 = Cytochrome P450 3A4 (Homo sapiens, UniProt P08684); assay: Inhibition of human CYP3A4 at 100 uM; format: ADME
[23] = Oral bioavailability in Beagle dog at 10 mg/kg; format: ADME, organism-based, Canis lupus familiaris; conditions: in vivo
[24] = Oral bioavailability in Sprague-Dawley rat at 3 mg/kg; format: ADME, organism-based; conditions: in vivo
[25] = Plasma half life in Beagle dog at 4 mg/kg, iv and 10 mg/kg, po; format: ADME, organism-based, Canis lupus familiaris
[26] = AUC in Beagle dog at 10 mg/kg, po; format: ADME, organism-based, Canis lupus familiaris; design: dose 10 mg/kg, route oral; conditions: plasma
[27] = Plasma half life in rhesus monkey at 1 mg/kg, po and 1 mg/kg, iv; format: ADME, organism-based, Macaca mulatta
[28] = Plasma clearance in Sprague-Dawley rat at 3mg/kg, iv and 3mg/kg, po; format: ADME, organism-based
[29] = Cmax in Sprague-Dawley rat at 3 mg/kg, iv and 3 mg/kg, po; format: ADME, organism-based; conditions: in vivo
Cytochrome P450 2D6 = Cytochrome P450 2D6 (Homo sapiens, UniProt P10635); assay: Inhibition of human CYP2D6 at 100 uM; format: ADME
[30] = Oral bioavailability in rhesus monkey at 1 mg/kg; format: ADME, organism-based, Macaca mulatta; conditions: in vivo
[31] = Cmax in Beagle dog at 4 mg/kg, iv and 10 mg/kg, po; format: ADME, organism-based, Canis lupus familiaris; conditions: in vivo
Cytochrome P450 1A2 = target: T1, Cytochrome P450 1A2 (Homo sapiens, UniProt P05177); assay: Inhibition of human CYP1A2 at 100 uM; format: ADME
T1 sequence (P05177 whole entry): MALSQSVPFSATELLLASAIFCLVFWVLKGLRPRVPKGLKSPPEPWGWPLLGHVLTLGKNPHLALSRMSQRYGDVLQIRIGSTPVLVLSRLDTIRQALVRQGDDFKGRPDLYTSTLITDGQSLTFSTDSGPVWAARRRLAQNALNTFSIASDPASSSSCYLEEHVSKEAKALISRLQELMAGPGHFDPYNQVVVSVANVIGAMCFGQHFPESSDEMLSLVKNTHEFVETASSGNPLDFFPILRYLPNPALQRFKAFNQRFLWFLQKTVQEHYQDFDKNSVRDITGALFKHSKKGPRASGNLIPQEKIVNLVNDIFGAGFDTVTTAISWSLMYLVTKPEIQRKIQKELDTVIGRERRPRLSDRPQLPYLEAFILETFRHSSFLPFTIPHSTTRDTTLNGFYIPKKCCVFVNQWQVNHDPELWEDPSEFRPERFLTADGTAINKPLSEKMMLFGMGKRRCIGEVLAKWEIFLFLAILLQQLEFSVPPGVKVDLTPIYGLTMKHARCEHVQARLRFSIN

[32] = Plasma clearance in Beagle dog at 4 mg/kg, iv and 10 mg/kg, po; format: ADME, organism-based, Canis lupus familiaris
[33] = Plasma half life in Sprague-Dawley rat at 3 mg/kg, iv and 3 mg/kg, po; format: ADME, organism-based
Cytochrome P450 2C19 = Cytochrome P450 2C19 (Homo sapiens, UniProt P33261); assay: Inhibition of human CYP2C19 at 100 uM; format: ADME

SMILES: CN1CCN(S(C)(=O)=O)CC1c1nc(C(=O)NCc2ccc(F)cc2)c(O)c(=O)n1C (centres undefined)
clearance [1]: 78 mL/min/kg
bioavailability [2]: 38%
IC50 [3]: 11 nM
IC95 [4]: 130 nM
half-life [5]: 0.8 h
fraction unbound (Homo sapiens): 0.31
IC95 [6]: 130 nM
AUC [7]: 0.6 µM·h

SMILES: CN1C[C@@H](F)C[C@H]1c1nc(C(=O)NCc2ccc(F)cc2)c(O)c(=O)n1C
clearance [1]: 21 mL/min/kg
bioavailability [2]: 94%
IC50 [3]: 20 nM
IC95 [4]: 60 nM
half-life [5]: 1.7 h
fraction unbound [8]: 0.08
IC95 [6]: 130 nM
AUC [7]: 4.5 µM·h

SMILES: CN1C[C@H](F)C[C@H]1c1nc(C(=O)NCc2ccc(F)cc2)c(O)c(=O)n1C
clearance [1]: 12 mL/min/kg
bioavailability [2]: 100%
logD [9]: 0.66
IC50 [3]: 20 nM
IC95 [4]: 130 nM
half-life [5]: 2 h
fraction unbound [8]: 0.03
IC95 [6]: 250 nM
AUC [7]: 12.5 µM·h

SMILES: CC(=O)N1CCN(C)C(c2nc(C(=O)NCc3ccc(F)cc3)c(O)c(=O)n2C)C1 (centres undefined)
clearance [1]: 42 mL/min/kg
bioavailability [2]: 17%
logD [9]: 0.09
IC50 [3]: 32 nM
IC95 [4]: 230 nM
half-life [5]: 0.9 h
fraction unbound (Homo sapiens): 0.3
IC95 [6]: 300 nM
AUC [7]: 0.8 µM·h

SMILES: CN1C[C@H](OCc2ccccc2)C[C@H]1c1nc(C(=O)NCc2ccc(F)cc2)c(O)c(=O)n1C
clearance [1]: 28 mL/min/kg
bioavailability [2]: 75%
logD [9]: 2.2
IC50 [3]: 130 nM
IC95 [4]: < 80 nM
half-life [5]: 2.3 h
AUC [10]: 2.3 µM·h
fraction unbound [8]: 0.07
fraction unbound (Homo sapiens): 0.05
IC95 [6]: 310 nM

SMILES: CN1C[C@H](O)C[C@H]1c1nc(C(=O)NCc2ccc(F)cc2)c(O)c(=O)n1C
clearance [1]: 21 mL/min/kg
bioavailability [2]: 2%
IC50 [3]: 100 nM
IC95 [4]: 630 nM
half-life [5]: 1.8 h
fraction unbound [8]: 0.22
AUC [11]: 0.1 µM·h
fraction unbound (Homo sapiens): 0.28
IC95 [6]: 630 nM

SMILES: CN1CC(F)(F)C[C@H]1c1nc(C(=O)NCc2ccc(F)cc2)c(O)c(=O)n1C
clearance [1]: 11 mL/min/kg
bioavailability [2]: 93%
AUC [12]: 9.9 µM·h
IC50 [3]: 30 nM
clearance [13]: 5 mL/min/kg
IC95 [4]: 30 nM
half-life [5]: 0.6 h
fraction unbound [14]: 0.15
bioavailability [15]: 100%
fraction unbound [8]: 0.06
fraction unbound (Homo sapiens): 0.12
IC95 [6]: 170 nM
half-life [16]: 6 h
AUC [7]: 11.8 µM·h

SMILES: CN1CCN(C)C(c2nc(C(=O)NCc3ccc(F)cc3)c(O)c(=O)n2C)C1 (centres undefined)
clearance [1]: 21 mL/min/kg
bioavailability [2]: 62%
IC50 [3]: 100 nM
IC95 [4]: 250 nM
half-life [5]: 0.7 h
fraction unbound (Homo sapiens): 0.28
IC95 [6]: 190 nM
AUC [7]: 5.1 µM·h

SMILES: CO[C@@H]1C[C@@H](c2nc(C(=O)NCc3ccc(F)cc3)c(O)c(=O)n2C)N(C)C1
clearance [1]: 19 mL/min/kg
bioavailability [2]: 79%
IC50 [3]: 180 nM
IC95 [4]: 150 nM
half-life [5]: 1.5 h
fraction unbound [8]: 0.11
fraction unbound (Homo sapiens): 0.25
IC95 [6]: 170 nM
AUC [7]: 5.2 µM·h

The next lines start with results.

clearance [1]: 10 mL/min/kg
bioavailability [2]: 76%
IC50 [3]: 70 nM
half-life [5]: 0.5 h
fraction unbound (Homo sapiens): 0.17
AUC [7]: 9.7 µM·h
SMILES: CN1CCSCC1c1nc(C(=O)NCc2ccc(F)cc2)c(O)c(=O)n1C (centres undefined)
IC95 [4]: 50 nM
IC95 [6]: 130 nM

clearance [1]: 18 mL/min/kg
bioavailability [2]: 84%
clearance [13]: 2.6 mL/min/kg
half-life [5]: 1 h
bioavailability [15]: 87%
AUC [17]: 29 µM·h
half-life [16]: 1.9 h
AUC (Rattus norvegicus): 6 µM·h
SMILES: CN1CCOCC1c1nc(C(=O)NCc2ccc(F)cc2)c(O)c(=O)n1C.Cl (single isomer, unassigned; (-))
CIC95 [4]: 90 µM
CIC95 [6]: 190 µM

clearance [1]: 22 mL/min/kg
bioavailability [2]: 92%
logD [9]: 0.59
clearance [13]: 3 mL/min/kg
half-life [5]: 1.6 h
fraction unbound [14]: 0.53
bioavailability [15]: 100%
fraction unbound [8]: 0.22
AUC [18]: 22 µM·h
AUC [11]: 4.3 µM·h
AUC [19]: 11 µM·h
half-life [16]: 10 h
AUC [20]: 1.7 µM·h
SMILES: CN1CCOCC1c1nc(C(=O)NCc2ccc(F)cc2)c(O)c(=O)n1C (centres undefined)
CIC95 [4]: 0.06 µM
CIC95 [6]: 0.1 µM

solubility [21]: 5800 µg/mL
clearance [22]: 14 mL/min/kg
Log D [9]: 0.47
Activity (Cytochrome P450 3A4): Not Active
bioavailability [23]: 69%
bioavailability [24]: 56%
half-life [25]: 7.2 h
AUC [26]: 136 µM·h
half-life [27]: 2 h
clearance [28]: 9 mL/min/kg
Cmax [29]: 5.6 µM
Activity (Cytochrome P450 2D6): Not Active
bioavailability [30]: 73%
Cmax [31]: 35 µM
Activity (Cytochrome P450 1A2): Not Active
clearance [32]: 2.2 mL/min/kg
half-life [33]: 1.1 h
AUC [7]: 8 µM·h
Activity (Cytochrome P450 2C19): Not Active
AUC [20]: 2.2 µM·h
SMILES: CN1CCOCC1c1nc(C(=O)NCc2ccc(F)cc2)c(O)c(=O)n1C.Cl (single isomer, unassigned; (+))
CIC95 [4]: 40 µM
CIC95 [6]: 65 µM
